Measured values reported in the SangsterLogP compilation.
Non-standard residues stand in square brackets, D forms with d. Residues, ends and D or L forms follow the SMILES beside them.

Experiments:
[1] = method code SF-HPLC, from Pan, J.; Wu, Z.; Hui, A.; Tao, M. (2011). Determination of partition coefficients of ginkgolide beta and its prodrug. Shizhen Guo Yi Guo Yao, 22(10)2397-2400.
[2] = method code SF-RC, from DOI: 10.1016/j.nucmedbio.2009.01.009, PMID: 19423014; settings: pH 7.4
[3] = method code SF-HPLC, from DOI: 10.1016/j.jpba.2007.09.019, PMID: 17988818
[4] = not given; remark: listed apart in the source
[5] = method code SF-AS, from DOI: 10.1021/jm300468t, PMID: 22574992; settings: pH 9.0
[6] = method code SF-AS, from DOI: 10.1111/j.2042-7158.1983.tb02957.x, PMID: 6135774
[7] = method code SF-AS, from DOI: 10.1021/jm9807104, PMID: 10514282; settings: pH 7.0
[8] = method code SF-RC, from DOI: 10.1002/jlcr.3404, PMID: 27126914; settings: pH 7.4
[9] = not given; remark: listed apart in the source
[10] = method code SF-RC, from DOI: 10.1016/j.nucmedbio.2006.10.003, PMID: 17210465; settings: pH 7.4
[11] = not given; remark: listed apart in the source
[12] = not given; remark: listed apart in the source
[13] = method code SF-AS, from DOI: 10.1021/jm00371a026, PMID: 6425501; settings: pH 7.4
[14] = not given; remark: listed apart in the source
[15] = not given; remark: listed apart in the source
[16] = method code SF-RC, from PMID: 447850; settings: pH 7.4
[17] = not given; remark: listed apart in the source
[18] = method code SF-AS, from PMID: 7271269; settings: pH 6.0
[19] = not given; remark: listed apart in the source
[20] = not given; remark: listed apart in the source
[21] = method code SF-HPLC, from Suo, X.; Li, M.; Wang, Y.; Zhu, S. (2010). Study on oil-water partition coefficient of hydroxycamptothecin and its absorption efficiency in rat small intestine. Chinese Traditional Patent Medicine, …; settings: pH 7.4
[22] = not given; remark: listed apart in the source
[23] = method code SF-HPLC, from DOI: 10.1016/0168-3659(92)90067-2
[24] = method code SF-RC, from DOI: 10.1021/es60172a005, PMID: 22280000
[25] = not given; remark: listed apart in the source
[26] = method code SF-AS, from PMID: 7460030; settings: pH 7.3
[27] = method code SF-HPLC, from DOI: 10.1002/jps.23034, PMID: 22213574; settings: pH 7.4
[28] = method code SF-HPLC, from DOI: 10.1002/jps.23140, PMID: 22499243; settings: pH 7.4
[29] = not given; remark: listed apart in the source
[30] = not given; remark: listed apart in the source
[31] = method code G-RC, from DOI: 10.1016/0300-483x(85)90031-9, PMID: 4049435
[32] = method code SF, from DOI: 10.1002/syn.20842; settings: pH 7.4
[33] = method code SF, from PMID: 3183
[34] = method code SF-AS, from DOI: 10.1016/0304-4165(87)90236-4, PMID: 2889474
[35] = method code SF, from DOI: 10.1021/jm300192x, PMID: 22519985; settings: pH 7.4
[36] = not given; remark: listed apart in the source
[37] = not given; remark: listed apart in the source
[38] = from Zeng, J.; Huang, T.; Li, F.; Zhu, Z.; Chen, L.; Feng, L. (2014). Determination of apparent oil-water partition coefficient and equilibrium solubility of levonorgestrel and gestodene by RP-HPLC. …
[39] = method code SF-HPLC, from DOI: 10.1016/j.ejps.2012.04.024, PMID: 22609526
[40] = method code SF-AS, from DOI: 10.1002/jps.2600720808, PMID: 6620139
[41] = method code SF-RC, from DOI: 10.1021/jm050166g.s001, PMID: 16162001; settings: pH 7.4

CC1C(=O)OC2C(O)C34C5CC(C(C)(C)C)C36C(OC(=O)C6O)OC4(C(=O)O5)C12O (configuration not stated)
logP [1]: 0.59

CCCCOc1c(OC)ccc2cc(C(=O)NC3CCCCC3)c(=O)[nH]c12
logD [2]: 3.9

CN(C)CCO[C@]1(c2ccccc2)C[C@H]2CC[C@]1(C)C2(C)C
logP: 5.9

COc1cc(C=Cc2cc(/C=C/c3ccc(O)c(OC)c3)n[nH]2)ccc1O
logP [3]: 1.78

CN(C)Cc1ccc(CSCCNc2[nH]cc(Cc3ccccc3)c2[N+](=O)[O-])o1
logP [4]: 3.65

Cc1c2c3cc(NC(=O)CNC(=O)CN)ccc3nc-2n(C)c2ccccc12
logD [5]: 0.85

COc1cc(N)c(Cl)cc1C(=O)NC1CCN(Cc2ccccc2)CC1
logP [6]: 2.99

COC(=O)C(C)NP(=O)(Oc1cccc(C(F)(F)F)c1)OC1C=CC(n2cc(C)c(=O)[nH]c2=O)O1 (configuration not stated)
logD [7]: 1.57

COc1ccc2c(C3=C(c4cn(C)c5ccc(I)cc45)C(=O)NC3=O)coc2c1
logD [8]: 3.23

N#CCNC(=O)[C@@H]1CCCC[C@H]1C(=O)N1CCN(c2ccccc2)CC1
logP [9]: 1.8

CN(C)c1ccc(/C=C/c2ccc(OCCOCCOCCF)nc2)cc1
logD [10]: 3.22

CCCCC[C@H](O)/C=C/[C@H]1[C@H](O)CC(=O)[C@@H]1C/C=C\CCCC(=O)O
logP [11]: 2.9

CSc1nc(Nc2ccccc2)c2cnn(CCCl)c2n1
logP [12]: 5.49

CO[C@@]12[C@H](COC(N)=O)C3=C(C(=O)C(C)=C(Nc4cccnc4)C3=O)N1C[C@@H]1N[C@@H]12
logD [13]: 0.52

O[C@H](CNC[C@H](O)[C@H]1COc2ccccc2O1)[C@@H]1COc2ccccc2O1
logP [14]: 2.45

Oc1ccc2ccccc2c1/N=N/c1ccc(/N=N/c2ccccc2)cc1
logP [15]: 2.11

C[C@]12CCC(=O)C=C1CC[C@@H]1[C@@H]2[C@@H](O)C[C@]2(C=O)[C@@H](C(=O)CO)CC[C@@H]12
logD [16]: 1.08

Cc1cc2c(-c3ccccn3)c[nH]c2c(C(=O)Nc2ncccc2C)n1
logP [17]: 4.7

COCOC(=O)C1N2C(=O)C(N3C(=O)C(c4ccc(O)cc4)NC3(C)C)C2SC1(C)C (configuration not stated)
logD [18]: 0.3

COc1cc(NC(C)=O)c(I)cc1C(=O)NCCCCN1CC2CCC1C2 (configuration not stated)
logP [19]: 0.8

CNC(=O)c1ccc(Oc2ccc3c(c2)CCN(C2CCC2)CC3)nc1
logP [20]: 2.24

CC[C@@]1(O)C(=O)OCc2c1cc1n(c2=O)Cc2cc3cc(O)ccc3nc2-1
logD [21]: 1.33

COCCOC(=O)C1=C(C)NC(C)=C(C(=O)OC(C)C)C1c1cccc([N+](=O)[O-])c1 (configuration not stated)
logP [22]: 2.82

CC(=O)N[C@H](Cc1ccc(O)cc1)C(=O)N[C@H](Cc1ccc(O)cc1)C(N)=O (Ac-[dY]-[dY]-NH2)
logP [23]: -0.16

Cc1ccc2cc3c(ccc4ccccc43)c3c2c1CC3
logP [24]: 6.42

O=C1C(=O)c2ccccc2C(O)=C1C1CCC(c2ccc(Cl)cc2)CC1 (configuration not stated)
logP [25]: 5.07

CCCCCOc1cccc(NC(=O)OC2CCCCC2)c1-n1ccnc1
logD [26]: 3.38

O=S(=O)(c1ccc(C(F)(F)F)cc1)N1c2cc(F)c(F)cc2-c2[nH]ncc2C1C1CC1 (configuration not stated)
logD [27]: 3.91

CCCCCCCCCCCCOP1(=O)OCC(Cn2ccc(N)nc2=O)O1 (configuration not stated)
logD [28]: 3.89

CN(C)c1ccc(-c2ccc3cc(OCC(O)CF)ccc3n2)cc1 (configuration not stated)
logP [29]: 3.03

CCOc1ccccc1OCCN[C@H](C)Cc1ccc(OC)c(S(N)(=O)=O)c1
logP [30]: 2.2

O=[N+]([O-])c1c2ccccc2c2ccc3cccc4ccc1c2c43
logP [31]: 5.44

CCCS(=O)(=O)N1CCC(CNC(=O)c2ccc(Cl)cc2Cl)(c2cccc(F)n2)CC1
logD [32]: 2.9

CCCCC(CC)CN1CN(CC(CC)CCCC)CC(C)(N)C1 (configuration not stated)
logP [33]: 2.05

C=C1C(=O)OC2CC(C)C3C=CC(=O)C3(C)C(OC(=O)C=C(C)C)C12 (configuration not stated)
logP [34]: 1.47

OCC1OC(c2ccc(N3CCc4ccccc43)cc2)C(O)C(O)C1O (configuration not stated)
logD [35]: 2.3

O=C(NN(C(=O)c1ccccc1)c1ccccc1)c1ccccc1
logP [36]: 3.32

FCCC1OC2(CCN(Cc3ccccc3)CC2)c2ccccc21 (configuration not stated)
logP [37]: 3.58

C#C[C@]1(O)C=C[C@H]2[C@@H]3CCC4=CC(=O)CC[C@@H]4[C@H]3CC[C@@]21CC
logP [38]: 3.45

O=c1c(O[C@@H]2OC[C@@H](O)[C@H](O)[C@H]2O)c(-c2ccc(O)c(O)c2)oc2cc(O)cc(O)c12
logP [39]: 1.75

C[C@]12CCC(=O)C=C1CC[C@@H]1[C@@H]2CC[C@@]2(C)[C@H]1CC[C@]2(C)O
logP [40]: 3.36

CN(C)c1ccc(C=Cc2ccc(OCC(CO)CF)cc2)cc1 (configuration not stated)
logD [41]: 3.14
